Source: patent EP0071374A1, “Nitrosourea derivatives having anti-tumour and anti-bacterial activity” (KUREHA KAGAKU KOGYO KABUSHIKI KAISHA, priority 1981, dated 1983)

What was measured:
[1] = Solubility in water; format: physicochemical
[2] = test system: Escherichia coli; test: Antibacterial activity in vitro, agar plate dilution; format: cell-based; design: key: + means the degree of inhibition of the growth of E. Coli; the larger the number of +, the larger the inhibition; ++: + means the degree of inhibition of the growth of E. Coli; the larger the number of +, the larger the inhibition; +++: + means the degree of inhibition of the growth of E. Coli; the larger the number of +, the larger the inhibition; - means that no inhibition of the growth of E. coli was observed; details: 18 hours at 37°C, Heart infusion agar
Experimental: Antibacterial activity: • i) A series of 2 times dilution of aqueous solution of each of the present compounds were prepared, and a plate culture medium was prepared by mixing each series with Heart infusion agar culture medium. A strain of Escherichia coli cultured in trypto-soy bouillon at 37°C for 18 hours was inoculated on the thus prepared culture medium, and after culturing for 18 hours at 37°C, the degree of proliferation of the inoculated bacteria was observed, the inoculum being a plutinum loop-full.

[3] = Side effects: nephrotoxicity (albuminurea); format: in vivo, JCL-ICR mouse; details: orally 10 mg/kg once a day for 5 days; for Nephrotoxicity: albuminurea
Experimental: Side effects: • The side effects of the present compounds were examined using JCL-ICR mouse as the experimental animal.
Each of the present compounds was orally administered to a group of the mouse at a daily dose rate of 10 mg/kg once a day for 5 days running, the same procedure being carried out on the other group of the mouse by administering BCNU at the same rate.

[4] = test system: L-1210 leukemia; test: Anti-tumour effect against L-1210 leukemia on mouse; format: in vivo; details: T/C x 100 of average survival days; dose 10 mg/kg intraperitoneally once a day for 5 days, starting 24 hours after transplantation of 1 x 10^5 cells/animal
Experimental: Anti-tumour effect against L-1210 leukemia on mouse: • The successively cultured L-1210 leukemia cells in the ascites of a mouse were transplanted intraperitoneally to a group of the mouse at a rate of 1 x 10^5 cells/animal, and after 24 hours of the transplantation, a solution of each of the present compounds dissolved in an aqueous physiological saline solution was intraperitoneally administered to the group of the mouse once a day for 5 days running. By observing the state of the mice, the average survival days of the administered mice (T) and those of the control group (C) were obtained to calculate the prolongation ratio of the mouse's life (T/C x 100).

[5] = test system: V-7 tumour; test: Anti-tumour effect against V-7 tumour on a rabbit; format: in vivo; details: survival days vs not-administered control rabbits; dose 10 mg/kg on the 7th day and 11th day of the transplantation
Experimental: Anti-tumour effect against V-7 tumour on a rabbit: • The cancer cells prepared by extirpating the solid tumour transplated and proliferated in the femoral part of a rabbit, cutting finely and having passed through stainless steel mesh of Tyler standard mesh of ? 200 were transplanted to the thinner muscle of the femoral part of a rabbit by using an injector at a rate of 1.5 x 10^7 cells/animal. On the 7th day and llth day of the transplantation, the present compound was administered to the transplanted rabbit. The prolongation ratio of the rabbit was calculated by the comparison of the survival days of the administered rabbits and the not-administered control rabbits.

## CCC(CO)(CO)NC(=O)N(CCCl)N=O [2-Ethyl-2-[3-(2-chloroethyl)-3-nitrosoureido]-1,3-propanediol]
[1]
  Solubility in Water: good
[2]; Diluted concentration 1/2
  degree of inhibition of the growth of E. coli: ++
[2]; Diluted concentration 1/4
  degree of inhibition of the growth of E. coli: +
[2]; Diluted concentration 1/8
  degree of inhibition of the growth of E. coli: +
[2]; Diluted concentration 1
  degree of inhibition of the growth of E. coli: +++
[3]
  Nephrotoxicity: + (+ means that albuminurea was observed in one to two animals of the total ten animals.)
[4]
  Prolongation ratio: 405%
[5]
  Prolongation ratio: 230%

## CC(CO)(CO)NC(=O)N(CCCl)N=O [2-Methyl-2-[3-(2-chloroethyl)-3-nitrosoureido]-1,3-propanediol]
[1]
  Solubility in Water: good
[2]; Diluted concentration 1/2
  degree of inhibition of the growth of E. coli: ++
[2]; Diluted concentration 1/4
  degree of inhibition of the growth of E. coli: ++
[2]; Diluted concentration 1/8
  degree of inhibition of the growth of E. coli: +
[2]; Diluted concentration 1
  degree of inhibition of the growth of E. coli: +++
[3]
  Nephrotoxicity: + (+ means that albuminurea was observed in one to two animals of the total ten animals.)
[4]
  Prolongation ratio: 410%
[5]
  Prolongation ratio: 205%

## CC(NC(=O)N(CCCl)N=O)C(O)CO (centres unmarked) [3-[3-(2-Chloroethyl)-3-nitrosoureido]-1,2-butanediol]
[1]
  Solubility in Water: good
[2]; Diluted concentration 1/2
  degree of inhibition of the growth of E. coli: ++
[2]; Diluted concentration 1/4
  degree of inhibition of the growth of E. coli: +
[2]; Diluted concentration 1/8
  degree of inhibition of the growth of E. coli: +
[2]; Diluted concentration 1
  degree of inhibition of the growth of E. coli: +++
[3]
  Nephrotoxicity: + (+ means that albuminurea was observed in one to two animals of the total ten animals.)
[4]
  Prolongation ratio: 430%
[5]
  Prolongation ratio: 210%

## O=NN(CCCl)C(=O)NCC(O)CO (centres unmarked) [3-[3-(2-Chloroethyl)-3-nitrosoureido]-1,2-propanediol]
[1]
  Solubility in Water: good
[2]; Diluted concentration 1/2
  degree of inhibition of the growth of E. coli: ++
[2]; Diluted concentration 1/4
  degree of inhibition of the growth of E. coli: +
[2]; Diluted concentration 1/8
  degree of inhibition of the growth of E. coli: +
[2]; Diluted concentration 1
  degree of inhibition of the growth of E. coli: +++
[3]
  Nephrotoxicity: + (+ means that albuminurea was observed in one to two animals of the total ten animals.)
[4]
  Prolongation ratio: 420%
[5]
  Prolongation ratio: 215%

## O=NN(CCCl)C(=O)NCCCl [BCNU, 1,3-Bis(2-chloroethyl)-1-nitrosourea, reference compound]
[1]
  Solubility in Water: not soluble
[2]; Diluted concentration 1/2
  degree of inhibition of the growth of E. coli: +
[2]; Diluted concentration 1/4
  degree of inhibition of the growth of E. coli: -
[2]; Diluted concentration 1/8
  degree of inhibition of the growth of E. coli: -
[2]; Diluted concentration 1
  degree of inhibition of the growth of E. coli: +
[3]
  Nephrotoxicity: +++ (+++ means that albuminurea was observed in eight to nine animals of the total ten animals.)
[3]; result in words
  degree of albuminurea: severely
[4]
  Prolongation ratio: 204%
[5]
  Prolongation ratio: 140%
